Like-named read-outs stand apart in the source and are kept apart here.
Experiments:
single cells of EMT-6 = experiment: Radiosensitivity test, in vitro test 1 (single cells of EMT-6, hypoxic); type: cell-based; settings: 1.0 mM, single EMT-6 cells, 60Co gamma rays
From the text: Cells used in the test: single cells of EMT-6
Irradiation: ^60 Co - gamma rays
Cell treatment to hypoxia:
A mixture gas of 95% nitrogen and 5% carbon dioxide was passed through cell suspension.
Determined by counting colonies.
Radiosensitivity enhancement ratio (ER): [formula]

Acute toxicity test = type: in vivo; settings: for General Status / LD50 at 336 h: mouse, in vivo; for LD50 at 336 h: ICR male mice, 14 days, read-out: LD50/14 (50% death rate over 14 days)
Method: Acute toxicity test and other tests regarding radiosensitising ability and antiviral activity were carried out using the compounds of the present invention.
ICR strain male mice of 5 week old were intravenously or intraperitoneally administered with various compounds each dissolved in a physiological saline or in a physiological saline containing 10% DMSO. The mice were observed over 14 days and 50% death rates (LD50/14) were obtained.

[1] = test system: Herpes simplex virus type I; experiment: Antiviral activity test (cytopathic effect in Vero cells); type: cell-based; design: key: 0: almost all cells are dead; 1: certain effect of test agent with some dead cells; 2: normal; settings: one day
Method: (3) Antiviral activity test Virus: Herpes simplex virus type I Cells: Vero (monkey kidney cells) Culture medium: 2% FBS MEM A sample conditioned to contain 2×10^5 /ml of vero cells was cultured at 37° C. in an atmosphere of 5% CO2 for 1 day to obtain a monolayer sample. The sample was infected by HSV virus diluted with PBS (phosphate buffer). Compound (I) was dissolved in DMSO, then adjusted to have concentrations of 100 μg/ml, 50 μg/ml, 10/μg/ml,5,μ/ml and 1 μg/ml by 2% FBS MEM, and served as test agents. The culture cells were added with each agent separately and incubated at 37° C. in a Co2 incubator for one day. The cytopathic effect was observed under microscope. Cells were stained by crystal violet and scored as follows: 0: almost all cells are dead 1: certain effect of test agent with some dead cells 2: normal The results are shown in Table 3.

EMT-6 tumor = experiment: Radiosensitivity in vivo test (EMT-6 tumor); design: species or system Balb/c mice; settings: 200 mg/kg intraperitoneal 20 minutes prior to whole body 60Co irradiation
Method: Tested compound: compound (3), 200 mg/kg
Compound (3) dissolved in a physiological saline was intraperitoneally administered 20 minutes prior to irradiation.
Irradiation: ^60 Co - gamma rays, whole body irradiation
Determination of radiosensitivity enhancement:
Enhancement ratio (ER) was obtained from irradiation dose and reduction ratio of tumor cells.

Spheroids of EMT-6 = experiment: Radiosensitivity test, in vitro test 2 (spheroids of EMT-6); type: cell-based; settings: 1 mM, 37° C. over 30 to 60 minutes, 60Co gamma rays
Method: (b) In vitro test 2 Cells used in the test: Spheroids of EMT-6 Irradiation: ^60 Co - gamma rays Tested compound: Compound (3), 1 mM Determination of radiosensitivity enhancement: Six particles of spheroid having a certain size were taken and placed in a culture solution containing compound (3) having a concentration of 1 mM, and incubated at 37° C. over 30 to 60 minutes, followed by irradiation. The spheroids were treated by trypsin and then the enhancement ratio (ER) was obtained by counting colonies.

Row | SMILES | Radiosensitivity enhancement ratio (ER) (single cells of EMT-6) | Dead/Treated (Acute toxicity test; intravenous, 720 mg/kg) | Dead/Treated (Acute toxicity test; intravenous, 860 mg/kg) | General Status (Acute toxicity test; iv) | LD50 at 336 h (Acute toxicity test; intravenous) [mg/kg] | cytopathic effect score ([1]; 1 μg/ml) | cytopathic effect score ([1]; 5 μg/ml) | cytopathic effect score ([1]; 10 μg/ml) | cytopathic effect score ([1]; 50 μg/ml) | cytopathic effect score ([1]; 100 μg/ml) | Dead/Treated (Acute toxicity test; intraperitoneal, 720 mg/kg) | Dead/Treated (Acute toxicity test; intraperitoneal, 860 mg/kg) | General Status (Acute toxicity test; ip) | LD50 at 336 h (Acute toxicity test; ip, intraperitoneal) [mg/kg] | enhancement ratio (ER) (EMT-6 tumor) | enhancement ratio (ER) (Spheroids of EMT-6) | Dead/Treated (Acute toxicity test; intraperitoneal, 600 mg/kg)
1 | O=[N+]([O-])c1ncn(COC(CO)CO)n1 [(4), 1-[2-hydroxy-1-(hydroxymethyl)ethoxy]methyl-3-nitro-1,2,4-triazol] | 1.50 | 0/2 | 1/2 | Calmed down | 860 | 0 | 0 | 1 | 2 | 2 | – | – | – | – | – | – | –
2 | CC(=O)OCC(COC(C)=O)OCn1ccnc1[N+](=O)[O-] [(1), 1-[2-acetoxy-1-(acetoxymethyl)ethoxy]methyl-2-nitroimidazol] | – | – | – | – | – | – | – | – | – | – | 0/2 | 0/2 | Calmed down | > 860 | – | – | –
3 | O=[N+]([O-])c1nccn1COC(CO)CO [Compound (3), 1-[2-hydroxy-1-(hydroxymethyl)ethoxy]methyl-2-nitroimidazol] | 1.70 | 0/2 | 0/2 | Calmed down | > 860 | 0 | 0 | 1 | 2 | 2 | – | – | – | – | 1.55 | 1.55 | –
4 | CC(=O)OCC(COC(C)=O)OCn1cnc([N+](=O)[O-])n1 [(2), 1-[2-acetoxy-1-(acetoxymethyl)ethoxy]methyl-3-nitro-1,2,4-triazol] | – | – | – | – | – | – | – | – | – | – | 0/2 | 2/2 | – | 790 | – | – | 0/2

— patent US4945102A, “Heterocyclic derivatives and radiosensitizing agents and antiviral agents comprising same as their active component” (Pola Chemical Industries Inc., Japan, priority 1987, dated 1990)
